We go through 94 compounds from a melting point compilation (Tetko et al.; mined from patent text by program, amines drawn as free bases though some values may be those of a salt).

The term melting point denotes the temperature of the solid-liquid transition. `CCNC(=O)c1c(Cl)ccc(Br)c1[Si](C)(C)C` came in with a melting point of 155 to 157 °C.

The compound `O=C(Nc1cccc(S(=O)(=O)C(F)(F)F)c1)c1cc2ccccc2cc1O` showed a melting point of 212 to 213 °C.

The compound `COC1=NS(=O)N=C1NCCCCC#CCN(C)C` (centres undefined) came in with a melting point of 154 to 155 °C.

For `COc1cnc2sc(S(=O)(=O)Cc3ccccc3)nn2c1=O`, the melting point is 204 to 206 °C.

Compound `CC(=O)OCC(=O)c1ccc(F)cc1F` displayed a melting point of 54 to 56 °C.

In turn, `COCCCc1cc(F)c2ncc(C(=O)NCc3ccc(Cl)cc3)c(O)c2c1` had a melting point of 189 to 192 °C.

Regarding `Cc1ccc(-c2nc(Cl)nc(Cl)n2)c(C)c1`, the melting point fell in the range of 136 to 137 °C.

`Cc1csc(NC(=O)c2cn(-c3ccccc3)c3ccccc3c2=O)n1` yielded a melting point of 252 to 254 °C.

`CCCCCCCCCCCCC(C)(CS(=O)(=O)O)C(=O)O` (centres undefined): the melting point fell in the range of 84 to 85 °C.

`O=C1CC(c2ccc3oc4c(c3c2)CCCC4)CC(=O)O1` gave a melting point of 164 to 166 °C.

For `NCCCCNC(=O)COc1ccc2ccccc2c1`, the melting point came out at 58 °C.

In turn, `Cc1ccc(S(=O)(=O)OC2CCCC2)cc1` returned a melting point below 30 °C.

For `CC(=O)OCC[Si](c1ccccc1)(c1ccccc1)c1ccccc1`, the melting point is 67 to 68 °C.

`COc1cccc2c1c(S(N)(=O)=O)nn2C` yielded a melting point of 268 to 270 °C.

Turning to `CSCc1ccccc1S(N)(=O)=O`, the melting point is 119 to 124 °C.

As to `COc1ccc2c(c1)CCC1C2CCC2(C)C=CCC12` (centres undefined), the melting point was 164 to 168 °C.

`COc1ccc(-c2[nH]nc3c2C(=O)c2c(NC(C)=O)cccc2-3)cc1` gave a melting point of 174 to 175 °C.

`CC(=O)Nc1nc(Cl)c(NC=O)c(Cl)n1`: the melting point fell in the range of 189 to 193 °C.

Turning to `CN(CCc1ccccc1)C(=O)Cn1cc(C=CC(=O)N2CCCC2)c2cc(OCc3ccccc3)ccc21`, the melting point lay in the range of 185 to 187 °C.

Compound `CCOc1nsc(NC(=O)N(C)C)c1C(N)=O` came in with a melting point of 172 °C.

With `Cc1ccc(C=C(F)C(=O)NC(Cc2ccccc2)C(=O)O)cc1` (centres undefined), the melting point was in the range of 163 to 164 °C.

Consider `Cn1c(N2CCOCC2)nc(C(=O)NCc2ccc(F)c(Cl)c2)c(O)c1=O`, for which the melting point lay within 170 to 171 °C.

For `COc1cc2c(cc1OC)CN(CCCOc1ccc(NC(=O)c3cccc(C(=O)c4ccccc4)c3)cc1)CC2`, the melting point is above 260 °C.

`N=c1nc(N)c2ncn(Cc3ccccc3)c2c(N)n1` displayed a melting point of 202 to 204 °C.

As for `CN(Cc1ccc(C(=O)O)cc1)c1ccc2c(c1)C(C)(C)CCC2(C)C`, the melting point lay within 141 to 144 °C.

For `O=S1(=O)NC(C2CCCCC2)=Nc2cccc(CO)c21`, the melting point lay within 220 to 223 °C.

Regarding `COc1nc(C)nc(NC(=O)NS(=O)(=O)c2c(C3=NOCCO3)csc2C)n1`, the melting point amounted to 200 °C.

`Nc1c(C(=O)c2ccncc2)[nH]c2cc(Cl)ccc12`: the melting point lay within 266 to 267 °C.

With `O=C(O)c1ccc(CN(Cc2ccc(C(F)(F)P(=O)(O)O)c(Br)c2)S(=O)(=O)c2ccccc2)cc1`, the melting point is 160 to 162 °C.

With `CCOCc1nc2c(N)nc(C)c(C)c2n1CCCN`, the melting point was found to be 127 °C.

`Cc1cc(Cl)ccc1-c1cc(F)cc2c1NC(CN)CO2` (centres undefined) displayed a melting point of 90 °C.

For the compound `CCNC(=O)c1sc(I)cc1[Si](C)(C)C`, the melting point lay in the range of 85 to 88 °C.

Compound `CN(C)c1ccc(-c2cn[nH]c2N)cc1` had a melting point of 173 to 176 °C.

Take `CCc1c(-c2ccc(O)cc2)c2cc(C(C)=O)c3cc(OC)cc1n32`: the melting point was 245 to 246 °C.

Take `O=C1c2ccccc2C(=O)N1CCCCOc1ccncc1`: the melting point was in the range of 126 to 127 °C.

The compound `CON=C(C1=NCCS1)c1ccccc1COc1cc(C)ccc1C` had a melting point of 79 to 82 °C.

The compound `C=CCOC(C(Cc1ccc(Cl)cc1)n1cncn1)C1(C)COCOC1` (centres undefined) registered a melting point of 113 to 115 °C.

For `CCN(CC)c1ccc2cc([N+](=O)[O-])c(=O)oc2c1`, the melting point lay within 193 to 195 °C.

With `Cc1onc(-c2ccc(F)cc2)c1-c1ccc(S(N)(=O)=O)c(F)c1`, the melting point lay in the range of 180 to 182 °C.

On to `CS(=O)(=O)c1c(Cl)c2cccnc2n(Cc2ccccc2)c1=O`, for which the melting point turned out to be 191 °C.

Turning to `COc1ncc(Cl)cc1Br`, the melting point fell in the range of 45 to 47.5 °C.

Take `c1ccc(OCCSCc2nnc(-c3ccc(OCCCN4CCCC4)cc3)o2)cc1`: the melting point came out at 70 °C.

On to `Nc1ncc(-c2cccc(F)c2)nc1C(=O)Nc1cccnc1`, for which the melting point was in the range of 234 to 238 °C.

Compound `O=C(O)c1cccc(-c2cc(-c3ccc(Cl)cc3)on2)c1` came in with a melting point of 293 to 295 °C.

In turn, `O=C/C=C/c1cc2ccccc2s1` gave a melting point of 88 °C.

Compound `CCSCc1cc2cc(CN3CCOCC3)cc3c(=O)c(C(=O)NCc4ccc(Cl)cc4)cn1c23` had a melting point of 177 to 178 °C.

For the compound `Clc1cncc(-n2ccc3ccccc32)c1`, the melting point is 56 to 57 °C.

`COc1ccc(C(=O)NC[C@@H]2CN3C(=O)C[C@H]3O2)cc1` (racemic) registered a melting point of 143 °C.

In the case of `COCc1nc2nccnc2c(=O)[nH]1`, the melting point fell in the range of 187 to 189 °C.

`N#Cc1nn(-c2c(Cl)cc(C(F)(F)F)cc2Cl)cc1C1(C(F)(F)F)CC1` had a melting point of 141 °C.

Consider `COC1(C(C)=O)CCC2C3CCC4=CC(=O)CCC4(C)C3CCC21C` (centres undefined), for which the melting point is 196 to 197 °C.

For `CC1C(=O)N(c2ccc(O)cc2)C(=S)N1c1ccc(Oc2ccc(F)cc2)cc1` (centres undefined), the melting point worked out at 148 °C.

`CCc1nc2c(OCc3ccccc3)cc(Br)cc2n1C` had a melting point of 111 to 115 °C.

`O=C(O)CCCCCc1cccc2c(I)ncn12` showed a melting point of 163 to 165 °C.

`CCn1c(=O)c2c(nc(C=Cc3cc(OC)ccc3S(N)(=O)=O)n2C)n(CC)c1=O`: the melting point was 236 to 237 °C.

`COc1cccc(C2C(CN(C)C)CC(=O)N2c2ccccc2)c1` (centres undefined) gave a melting point of 88 to 92 °C.

Turning to `CC(C(=O)O)c1ccc(-c2cn3cccnc3n2)cc1` (centres undefined), the melting point was 248 °C.

Take `CC(CSC(=S)N(C)C)[N+](=O)[O-]` (centres undefined): the melting point was in the range of 38.5 to 41 °C.

Turning to `CC(=O)Nc1cccc2c1SCC=C2`, the melting point lay in the range of 98 to 100 °C.

As for `CCNC(=O)CC1CN=C(c2cc3cc(Oc4ccc(S(C)(=O)=O)nc4)ccc3[nH]2)S1` (centres undefined), the melting point was in the range of 216 to 217 °C.

With `CCCn1cc(CN(C(=O)C2CCCc3c(O)cccc32)c2ccc(C(C)C)cc2)cn1` (centres undefined), the melting point came out at 161 °C.

In the case of `O=C1Nc2cccc(-c3cccc(NC(=O)c4ccc(S(=O)(=O)F)cc4)c3)c2/C1=C/c1ccc[nH]1`, the melting point was 148 to 151 °C.

In turn, `CCCOC(=O)Nc1cn2nc(OCc3cc(C)ccc3C)ccc2n1` returned a melting point of 196 to 197 °C.

Consider `CCCCCCCCCCCCn1nnc(CCC(=O)Nc2c(C(C)C)cccc2C(C)C)n1`, for which the melting point fell in the range of 41 to 43 °C.

As for `CN1C(=O)NC(=O)CC1c1ccccc1` (centres undefined), the melting point was in the range of 155 to 156 °C.

`Cn1cc(C(=O)NCc2ccc(Cl)cc2)c(=O)c2cc(CCl)ccc21`: the melting point fell in the range of 241 to 242 °C.

Turning to `CC1(C)CC(c2ccc(F)cc2)=C(/C=C/[C@H]2C[C@H](O)CC(=O)O2)C(C)(C)C1` (relative stereo), the melting point lay in the range of 121 to 122 °C.

Consider `O=C(CN1CCN(c2ccccc2)CC1)N1CCC(CNCc2ccco2)(c2cccc(C(F)(F)F)c2)CC1`, for which the melting point was determined as 119 °C.

Compound `O=c1[nH]c2cc(Cl)ccc2c(O)c1-c1ccc(I)cc1` gave a melting point above 350 °C.

Compound `C[C@@H]1N=C(c2ccccc2)c2cc(N)ccc2N(C)C1=O` showed a melting point of 219 to 221 °C.

In turn, `O=C1c2ccccc2N(N2CCCCC2)C2=NCCN12` showed a melting point of 229 to 231 °C.

For `O=S(=O)(c1ccncc1)C1CCNCC1`, the melting point is 88 to 91 °C.

`COc1ccc(C(C)N(C)CCCOc2ccc(S(=O)(=O)c3ncsc3-c3ccccc3)cc2)cc1OC` (centres undefined) returned a melting point of 162 °C.

`c1coc(-c2ccnc3[nH]c4ccccc4c23)c1` returned a melting point above 220 °C.

In turn, `CCCC(=O)NCCCCn1c(C)nc2c(N)nc3ccccc3c21` had a melting point of 169 to 170 °C.

Take `COc1nc2c(Cl)c(Cl)c(Cl)c(Cl)c2n1COC(CO)CO`: the melting point is 192 °C.

Compound `CC(C(=O)O)c1ccc(Oc2ccccc2F)cc1` (centres undefined) gave a melting point of 106 to 108 °C.

`CC(Sc1cc2cc(O)ccc2[nH]1)(C(=O)O)c1ccccc1` (centres undefined) registered a melting point of 180 to 182 °C.

The compound `O=C(O)COc1ccc(SCc2ccc(OCc3ccc(Cl)c(C(F)(F)F)c3)cc2)c2c1CCC2` showed a melting point of 151 to 152 °C.

Take `CCOc1ccccc1C(=N)N`: the melting point is 78 to 84 °C.

The compound `O=C(C1CC1)N1CCC2(CC1)OC(c1ccccc1)C1CCCCN12` (centres undefined) had a melting point of 110 to 114 °C.

With `CC(=O)c1cc(Cl)c(N)c2c1OCCO2`, the melting point lay within 133 to 136 °C.

`O=S(=O)(CCc1ccccc1)CCc1ccccc1` gave a melting point of 98 to 99 °C.

`C[C@@H](CNC(=O)OC(C)(C)C)c1ccc(O)c(O)c1` had a melting point of 116 to 118 °C.

`CC(C)(C)[Si](C)(C)Oc1cc(Cl)cc(C(=O)C(F)(F)F)c1N` came in with a melting point of 45 to 46.5 °C.

`C[C@H]1CC(=O)O[C@@H]1CO`: the melting point fell in the range of 104 to 105 °C.

On to `O=C(NC(CO)CO)OCc1ccccc1`, for which the melting point lay within 104 to 106 °C.

Consider `O=C1c2ccccc2-c2c1c(=O)[nH]c1ccccc21`, for which the melting point is above 290 °C.

`O=C(O)CCOc1cccc(CCNC(=O)C2Cc3ccccc3N2S(=O)(=O)c2ccc(-c3cccc(C(F)(F)F)c3)cc2)c1` (centres undefined): the melting point was found to be 78 °C.

`CC1(C)[C@H](C(=O)OCc2csc(Oc3ccccc3)n2)[C@@H]1C=C1CCSC1=O` had a melting point of 78 °C.

Take `COc1ccc(-c2nc(-c3cccs3)c[nH]2)cc1C`: the melting point was in the range of 110 to 114 °C.

`CC(CSC(C)C(=O)O)C(=O)O` (centres undefined) registered a melting point of 78 to 80 °C.

In the case of `CN1C(=O)[C@H](NC(=O)c2cc3ccccc3[nH]2)N=C(c2ccccc2)c2ccccc21`, the melting point is 167 to 177 °C.

For `COc1cc(N)c(Cl)cc1C(=O)NCC1CCN(CCCCNC(=O)c2ccccc2)CC1`, the melting point lay within 165 to 168 °C.
